Assay results reported in PubChem BioAssay (NCI).
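Assay format: 96-well plates, 48-hour exposure. The concentration for 50% growth inhibition is given as GI50. Definition used: TGI = concentration required for complete inhibition of growth.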

How the values were obtained:
Experiment in all cases: NCI anticancer screen, dose series, 48 h
[1] = test system: HOP-62 NSCLC
[2] = test system: A498 renal
[3] = test system: UACC-62 melanoma
[4] = test system: CAKI-1 renal
[5] = test system: OVCAR-8 ovarian
[6] = test system: HCT-15 colon
[7] = test system: SK-OV-3 ovarian
[8] = test system: UO-31 renal
[9] = test system: SNB-19 CNS
[10] = test system: MCF7 breast

Row | Compound | TGI [1] [µM] | TGI [2] [µM] | TGI [3] [µM] | TGI [4] [µM] | TGI [5] [µM] | TGI [6] [µM] | TGI [7] [µM] | TGI [8] [µM] | TGI [9] [µM] | TGI [10] [µM] | GI50 [1] [µM] | GI50 [2] [µM] | GI50 [3] [µM] | GI50 [5] [µM] | GI50 [6] [µM] | GI50 [7] [µM] | GI50 [10] [µM] | GI50 [8] [µM] | GI50 [9] [µM] | GI50 [4] [µM]
1 | Clc1ccc2nc(-c3ccccc3)nc(Cl)c2c1 | 79.9 | > 100 | > 100 | 54.9 | > 100 | > 100 | 36.8 | > 100 | > 100 |  |  |  |  |  |  |  |  |  |  | 
2 | COC(=O)N/N=C(/CCC(=O)Nc1ccc(C)c(C)c1)CC(=O)C(C)(C)C | > 100 |  | > 100 | > 100 | > 100 | > 100 | > 100 | > 100 | > 100 |  |  |  |  |  |  |  |  |  |  | 
3 | CC1C[C@]2(C[C@@H](C)C(=O)O2)O[C@@H]2CC3(C)[C@@H]4CCC5C(C)(C)OC(=O)C[C@H]6OO[C@]4(CC[C@]3(C)C12)CC56O (stereo partly specified) |  |  | > 100 |  | > 100 | > 100 | > 100 | > 100 | > 100 |  |  |  |  |  |  |  |  |  |  | 
4 | CCOC(=O)C1=C(C)N(NC(N)=O)C(C)(O)C12CCOC2=O (stereo unspecified) | > 100 | > 100 | > 100 | > 100 | > 100 | > 100 | > 100 | > 100 | > 100 |  |  |  |  |  |  |  |  |  |  | 
5 | CC1=C(C(=O)Nc2ccc([N+](=O)[O-])cc2)C(c2ccc3c(c2)OCO3)C(C(=O)Nc2ccc([N+](=O)[O-])cc2)=C(C)N1 | > 100 | 69.1 | 59.4 | > 100 | 27.9 | > 100 | > 100 | > 100 | > 100 |  |  |  |  |  |  |  |  |  |  | 
6 | COc1ccc(-c2cc(-c3cc(Cl)cc(Br)c3O)[nH]c(=O)n2)cc1 | 28.1 | 31.4 | 29.4 | 37.2 | 37.2 |  | 38.8 | 34.7 | 57.2 |  |  |  |  |  |  |  |  |  |  | 
7 | Cc1cccc(N2C(=O)C(=O)C(c3nc4ccccc4s3)/C(=N/NC(=S)NN)C2=O)c1C (stereo unspecified) | > 100 | > 100 | > 100 | > 100 | > 100 | > 100 | > 100 | > 100 | > 100 |  |  |  |  |  |  |  |  |  |  | 
8 | CCN(CC)C(=O)N1CCN(C=S)CC1 | > 100 | > 100 | > 100 |  | > 100 | > 100 | > 100 | > 100 | > 100 |  |  |  |  |  |  |  |  |  |  | 
9 | CC(/C=C/c1ccccc1)=N\NC(N)=S | > 100 | 44.5 |  | > 100 | > 100 | > 100 | > 100 | > 100 | 79.2 | > 100 |  |  |  |  |  |  |  |  |  | 
10 | Cc1cc(C(=O)O)c(C)n1-c1cccc(C(=O)O)c1 | > 100 | > 100 | > 100 |  | > 100 | > 100 | > 100 | > 100 | > 100 | > 100 | > 100 | > 100 | > 100 | > 100 | > 100 | > 100 | > 100 | > 100 | > 100 | 
11 | NCCOc1ccccc1/C=C1\c2ccccc2-c2ccc([N+](=O)[O-])cc21 | 3.18 | 2.76 | 2.92 | 2.72 | 3.33 | 2.53 | 3.13 | 2.61 |  | 2.25 | 1.53 | 1.44 | 1.54 | 1.53 | 1.2 | 1.7 | 0.805 | 1.3 |  | 1.38
12 | O=C1Nc2ccccc2/C1=C\c1nc(C2CCN(S(=O)(=O)c3ccc(F)cc3)CC2)n2ccccc12 | 6.37 | > 100 |  | > 100 | 6.77 | > 100 | > 100 |  | 33.3 | > 100 | 2.06 | 17.1 |  | 1.39 | > 100 | 4.96 | 5.72 |  | 3.99 | 1.73
13 | OCCNCCCOc1ccc2ncnc(Nc3ccc(Oc4cccc(C(F)(F)F)c4)c(Cl)c3)c2c1 |  | 5.29 | 3.31 | 11.6 | 5.83 | 3.01 |  | 2.57 |  |  |  | 1.72 | 1.79 | 2.24 | 1.54 |  |  | 1.29 |  | 2.99
14 | CC1(C)C=N[N+]2(C)C3C=CC(CC3)C12 (stereo unspecified) | > 100 | > 100 | > 100 | > 100 | > 100 | > 100 | > 100 | > 100 | > 100 |  |  |  |  |  |  |  |  |  |  | 
15 | Oc1ccc(CCNCc2cc3c(cc2Br)OCO3)cc1 | > 100 | > 100 | > 100 |  | > 100 | > 100 | > 100 | > 100 | > 100 | > 100 |  |  |  |  |  |  |  |  |  | 
16 | C=CC1(NS(=O)(=O)c2ccc(C)cc2)CCC(C(C)(C)C)CC1 (stereo unspecified) | > 100 | > 100 | > 100 | > 100 | > 100 | > 100 | > 100 | > 100 | > 100 |  |  |  |  |  |  |  |  |  |  | 
17 | O=[N+]([O-])c1ccc(/C=C/c2csnn2)cc1 | > 100 |  | > 100 | > 100 | > 100 | > 100 | > 100 | > 100 | > 100 |  |  |  |  |  |  |  |  |  |  | 
18 | Cc1cc(N2CCCC2)nc(NCc2cc(Nc3ccnc4cc(Cl)ccc34)ccc2F)n1 | 3.14 | 2.54 |  | 2.86 | 3.27 | 2.35 | 3.89 | 2.66 |  | 1.07 | 1.46 | 1.04 |  | 1.69 | 1.06 | 2.04 | 0.216 | 1.21 |  | 1.38
19 | Cc1ccc(C2=C(c3ccccc3)C(c3ccccc3)Oc3ccc(C)cc32)cc1 (stereo unspecified) | 7.71 | 5.32 | 22.8 | 31.4 | 26.7 | 35.8 |  | 17 |  | 13.1 | 3.09 | 1.56 | 10 | 6.92 | 16.9 |  | 3.33 | 4.37 |  | 12.7
